“Also recorded” adds a separate entry of the source.
Columns and labels:
[1] = system: L. infantum promastigotes; test: In vitro leishmanicidal activity (MTT) in promastigote forms; assay type: cell-based, Leishmania infantum; settings: for IC50: 72 h treatment, MTT
Method: (§1) Promastigote forms of L. infantum [IOC/L0579 (MHOM/BR/1974/PP75)] were cultured in Schneider’s medium (pH 7.0), supplemented with 20% fetal bovine serum (FBS), 1% human male urine, and 1% antibiotic solution (penicillin 200 U/mL and streptomycin 0.1 mg/mL), and maintained at 26 ± 1 °C (B.O.D SL 200—SOLAB, Piracicaba, SP, BR). The generation of extracellular axenic amastigote forms of L. infantum was based on protocols previously described by Debrabant et al. (2004), with modifications that included the use of Schneider’s medium adjusted to pH 5.5 and incubation at 37 °C (CO2 Series 3517-2, Cornelius, OR, USA).
The antileishmanial activity of compounds against metacyclic promastigote populations was assessed using the MTT (ACROS, Livingston, NJ, USA) assay for cell viability analysis. During testing, L. infantum (IOC/L0579) cultures were maintained in vitro in supplemented Schneider’s (Sigma-Aldrich, St. Louis, MO, USA) medium (pH 7.0) at 26 ± 1 °C in a biological oxygen demand (BOD) incubator.
(§2) In 96-well plates, initial screening was performed with serial dilutions (400 to 3.12 μM) of compounds 3a–c and 4a–c in duplicate. […] AmB was used as a positive control due to its established leishmanicidal activity, tested at concentrations ranging from 10 to 0.078 μM. Following 72 h-treatment of promastigotes and 24 h-treatment of amastigotes (accounting for the stationary phase culture characteristics), MTT was added for 4 h, followed by overnight incubation with sodium dodecyl sulfate (SDS) for spectrophotometric (Biotek model ELx800, Winooski, VT, USA) reading at 540 nm.

[2] = system: L. infantum axenic amastigotes; test: In vitro leishmanicidal activity (MTT) in axenic amastigote forms; assay type: cell-based, Leishmania infantum; settings: for IC50: axenic amastigotes, 24 h treatment, MTT
Method: as §1, §2

[3] = system: L. infantum axenic amastigotes; test: Synergistic activity of 4b with AmB (Chou-Talalay) against axenic amastigotes; assay type: cell-based, Leishmania infantum; settings: of each drug within the 1:5 AmB:4b combination
Method: The nature of the drug interaction (synergistic, additive, or antagonistic) was evaluated using the Chou–Talalay method implemented in CompuSyn software (ComboSyn Incorporated, version 1.0.1, 2006–2023). This approach calculates the Combination Index (CI) based on dose–response data fitted to the median-effect equation, with parameters including Dm (median-effect dose), m (slope of the dose–effect curve), and r (linear correlation coefficient). To characterize the interaction at different effect levels, CI values were determined for the following effective doses: ED50, ED75, and ED90, corresponding to 50%, 75%, and 90% inhibition of cell viability, respectively. Interactions were interpreted as synergistic when CI < 1, additive when CI = 1, and antagonistic when CI > 1. Additionally, the dose reduction index (DRI) was calculated to estimate the amount of dose reduction that could be achieved for each drug in combination while maintaining the same level of efficacy; […]

[4] = Cytotoxicity (MTT) in peripheral blood mononuclear cells; assay type: cell-based, human; settings: human, peripheral blood mononuclear cells (PBMCs), 24 h; for CC50 at 24 h: PBMCs, MTT; for viability at 24 h, 250 µM: at 250 μM; for viability at 24 h, 500 µM: at 500 μM
Method: (§3) For the PBMCs assay, blood samples from three healthy volunteers were processed using Ficoll density gradient centrifugation (980× g) for 20 min at 25 °C. The PBMCs layer was collected, washed with sterile 1× PBS (300× g, 10 min, 4 °C), and resuspended in RPMI medium (Sigma-Aldrich) supplemented with 10% FBS and 1% antibiotic. Adjusted PBMCs were plated in 96-well plates and incubated with serial dilutions of the compounds (1000 to 7.8 µM) and AmB (100 to 0.78 µM) for 24 h (37 °C, 5% CO2). MTT was then added for 4 h, followed by centrifugation (300× g, 10 min) at 4 °C, supernatant removal, and DMSO addition for spectrophotometric reading at 540 nm.

[5] = system: human PBMCs; test: as above; assay type: cell-based
Method: as §3

[6] = system: human erythrocytes; test: Hemolytic activity in human erythrocytes; assay type: cell-based; settings: for hemolytic activity (in words): tested concentrations 100–0.78 µM
Method: The hemolytic activity of the compounds 4a–b was evaluated using an adaptation of the method described by Van de Ven (2012). Blood samples were adjusted to a 5% erythrocyte concentration, taking into account the hematocrit differences between males (40–50% ≈ 45%) and females (35–45% ≈ 40%). Compounds were added to 96-well plates at serial dilutions (100 to 0.78 µM), while AmB was tested at concentrations ranging from 400 to 3.12 µM as a reference. After 1 h of incubation at 37 °C in a 5% CO2 incubator, 100 µL of phosphate-buffered saline (PBS) was added to each well. Plates were centrifuged (112× g, 10 min, 25 °C), and supernatants were transferred to a mirrored 96-well plate. Hemoglobin release, reflecting erythrocyte lysis, was quantified by measuring absorbance at 540 nm. The assay was performed in three independent experiments, with results expressed as mean hemolytic concentration (HC50). Ultrapure water (Direct-Q UV, Guyancourt, France) served as the positive control (100% hemolysis).

[7] = at the highest concentration, 72 h
[8] = at the lowest doses / lower concentrations, 72 h

Row | dose reduction index (DRI) at IC50 [3] | Structure (SMILES) | IC50 ([1]; Leishmania infantum) [µM] | IC50 ([2]; Leishmania infantum) [µM] | CC50 at 24 h [4] [µM] | viability at 24 h, 250 µM ([4]; read-out: PBMC viability) [%] | viability at 24 h, 500 µM ([4]; read-out: PBMC viability) [%] | hemolytic activity (in words) [6] | promastigote viability [1, 7] [%] | promastigote viability [1, 8] [%] | also measured
1 | 2.87 | C[C@@H]1[C@H](O)[C@@H](C)/C=C/C=C/C=C/C=C/C=C/C=C/C=C/[C@H](O[C@@H]2O[C@H](C)[C@@H](O)[C@H](N)[C@@H]2O)C[C@@H]2O[C@](O)(C[C@@H](O)C[C@@H](O)[C@H](O)CC[C@@H](O)C[C@@H](O)CC(=O)O[C@H]1C)C[C@H](O)[C@H]2C(=O)O [AmB, Amphotericin B, reference compound] | 0.87 | 0.89 | 29.9 |  |  |  |  |  | viability at 24 h, 25 µM ([4]; at 25 μM, read-out: PBMC viability): 61.9%; viability at 24 h, 50 µM ([4]; at 50 μM, read-out: PBMC viability): 40.8%; viability at 24 h, 100 µM ([4]; at 100 μM, read-out: PBMC viability): 30.4%; CC50 ([5]; PBMCs, 24 h, MTT): 29.9 µM; 50% hemolytic concentration (HC50) ([6]; 5% erythrocytes, 1 h, 37 °C): 193.4 µM
2 | 1.28 | COc1ccc(C(=O)/C=C/c2ccc(OCC(=O)NC3CCCCC3)cc2)cc1 [Compound 4b, (E)-N-Cyclohexyl-2-(4-(3-(4-methoxyphenyl)-3-oxoprop-1-enyl)phenoxy)acetamide] | 7.02 | 3.4 | 505 | 65.1 | 55.2 | no hemolytic activity |  |  | viability at 3.12 µM ([1]; Leishmania infantum, at 3.12 µM, 72 h): 79.3%; viability at 6.25 µM ([1]; Leishmania infantum, at 6.25 µM, 72 h): 34.2%; viability at 12.5 µM ([1]; Leishmania infantum, at 12.5 µM, 72 h): 24.3%; viability at 1.56 µM ([2]; Leishmania infantum, at 1.56 µM, 24 h): 85.5%; viability at 3.12 µM ([2]; Leishmania infantum, at 3.12 µM, 24 h): 60.8%; viability at 6.25 µM ([2]; Leishmania infantum, at 6.25 µM, 24 h): 9.12%; viability at 24 h, 1000 µM ([4]; at 1000 μM, read-out: PBMC viability): 31.8%; PBMC cytotoxicity versus negative controls (in words) ([5]; 25–100 μM): negligible cytotoxicity
3 |  | O=C(COc1ccc(/C=C/C(=O)c2ccc(Br)cc2)cc1)NC1CCCCC1 [Compound 4c, (E)-2-(4-(3-(4-Bromophenyl)-3-oxoprop-1-enyl)phenoxy)-N-cyclohexylacetamide] | 45.8 |  |  |  |  |  | 21.93 | 100 | activity against amastigotes (in words) ([2]; 24 h): no detectable activity; also recorded: no inhibitory effect
4 |  | Cc1ccc(C(=O)/C=C/c2ccc(OCC(=O)NC3CCCCC3)cc2)cc1 [Compound 4a, (E)-N-Cyclohexyl-2-(4-(3-oxo-3-p-tolylprop-1-enyl)phenoxy)acetamide] | 12.9 | 19.7 | 157 | 33 | 33.4 | no hemolytic activity | 20.77 | 100 | viability at 12.5 µM ([2]; Leishmania infantum, at 12.5 µM, 24 h): 80.2%; viability at 25 µM ([2]; Leishmania infantum, at 25 µM, 24 h): 30.8%; viability at 50 µM ([2]; Leishmania infantum, at 50 µM, 24 h): 23.5%; viability at 24 h, 125 µM ([4]; at 125 μM, read-out: PBMC viability): 61.2%

Reference: publication PMC12649483, “Novel Chalcone Derivatives as Anti-Leishmania infantum Agents with Potential Synergistic Activity and In Silico Insights” (Antibiotics, 2025)
